Data set [1] can be described thus: Solubility in tetrahydrofuran. The data set is classed as physicochemical. The settings on record: 1 part by weight of compound in 100 parts by weight of tetrahydrofuran. The source says: (§1) Evaluation was made by three ranks, i.e., by 0 if the composition dissolved completely and provided a clear mixture, by ▴ if it almost dissolved but provided a slightly cloudy mixture and by X if it little dissolved.

The nature of data set [2]: Compatibility with the urethane prepolymer (1). The data set is classed as physicochemical. The settings on record: 1 part by weight of compound in 100 parts by weight of urethane prepolymer (1).
Text: as §1

Data set [3] in a line: Compatibility with the epoxy resin (EPICOAT 828). The data set is classed as physicochemical. The settings on record: 1 part by weight of compound in 100 parts by weight of epoxy resin (EPICOAT 828).
Text: as §1

The conditions of data set [4]: radiation at 254 nm; cited from earlier work.

Take `CC(=NOC(=O)NCCCCCCNC(=O)ON=C(C)c1ccccc1)c1ccccc1` [Example 1]: the “Solubility THF” value in data set [1] was “◯”.
Take `C=C(C)C(=O)OCCNC(=O)ON=C(C)c1ccccc1` [Example 4]: the “Solubility Prepolymer” value in data set [2] is listed as “◯”. The “Solubility Epoxy Resin” value in data set [3] is recorded as “◯”. For the same molecule, the “Solubility THF” value in data set [1] was “◯”.
For `NC(=O)OCc1ccccc1[N+](=O)[O-]` [o-nitrobenzyl carbamate], the quantum yield result in data set [4] is recorded as “about 0.13”.

Source of the values: patent US20060035995A1, “Photosensitive amine generator, photocurable composition and photoreactive adhesive composition” (Sekisui Chemical Co., Ltd., priority 2000, published 2006).
